These results are taken from ChEMBL document CHEMBL4477259, “Discovery and structure-activity relationships of a novel isothiazolone class of bacterial type II topoisomerase inhibitors” (Bioorg Med Chem Lett, 2016).

Converted amounts (≈) assume the structure as drawn. Where only a bound is given, the exact number is not on record here.

For one data set, the system named is Acinetobacter baumannii. Put plainly: Antibacterial activity against Acinetobacter baumannii NCTC 13420. Format: functional.
The test system of the next data set is Klebsiella pneumoniae. As to the kind of experiment: Antibacterial activity against Klebsiella pneumoniae ATCC 700603. The class given is functional.
The subject of the next data set is Pseudomonas aeruginosa. As to the kind of experiment: Antibacterial activity against Pseudomonas aeruginosa ATCC 27853. The class given is functional.
The next data set deals with Staphylococcus aureus. Put plainly: Antibacterial activity against Staphylococcus aureus ATCC 29213. The class given is functional.
For data set [1], the system named is Escherichia coli. Put plainly: Antibacterial activity against Escherichia coli W4573. Format: functional.
Data set [2] concerns Escherichia coli. Put plainly: Antibacterial activity against Escherichia coli N43. Format: functional.
The test system of data set [3] is Escherichia coli. Put plainly: Antibacterial activity against wild type Escherichia coli LM179. The class given is functional.
For data set [4], the system named is Escherichia coli. As to the kind of experiment: Antibacterial activity against Escherichia coli LM625 harboring GyrA S83L/D87N double mutant. The class given is functional.
The subject of data set [5] is Escherichia coli. As to the kind of experiment: Antibacterial activity against Escherichia coli LM367 harboring delta marR/delta acrR double mutant. Format: functional.
Data set [6] has as its system Escherichia coli. As to the kind of experiment: Antibacterial activity against Escherichia coli LM693 harboring GyrA S83L/D87N double mutant/ParC S80I mutant. Format: functional.
Data set [7] deals with Escherichia coli. As to the kind of experiment: Antibacterial activity against Escherichia coli LM705 harboring GyrA S83L/D87N double mutant/ParC S80I mutant/delta marR/delta acrR double mutant. The class given is functional.
Data set [8] concerns Escherichia coli. Put plainly: Antibacterial activity against Escherichia coli CH440 harboring GyrA S83L/D87N double mutant/ParC S80I E84V double mutant/aac(6')-lb-cr. Format: functional.
The test system of data set [9] is Escherichia coli. Put plainly: Antibacterial activity against Escherichia coli CH460 harboring GyrA S83L/D87N double mutant/ParC S80I E84V double mutant/qepA. Format: functional.
Data set [10] deals with Escherichia coli. As to the kind of experiment: Antibacterial activity against Escherichia coli CH418 harboring GyrA S83L/D87N double mutant/ParC S80I E84G double mutant/qnrA. Format: functional.
For data set [11], the system named is Escherichia coli. Put plainly: Antibacterial activity against Escherichia coli CH448 harboring GyrA S83L mutant/qnrS. Format: functional.
Data set [12] has as its system Escherichia coli. Put plainly: Selectivity ratio of MIC for Escherichia coli LM625 harboring GyrA S83L/D87N double mutant to MIC for wild type Escherichia coli LM179. The class given is functional.
Data set [13] concerns Escherichia coli. As to the kind of experiment: Selectivity ratio of MIC for Escherichia coli LM367 harboring delta marR/delta acrR double mutant to MIC for wild type Escherichia coli LM179. The class given is functional.
Data set [14] has as its system Escherichia coli. As to the kind of experiment: Selectivity ratio of MIC for Escherichia coli LM693 harboring GyrA S83L/D87N double mutant/ParC S80I mutant to MIC for wild type Escherichia coli LM179. Format: functional.
For data set [15], the system named is Escherichia coli. Put plainly: Selectivity ratio of MIC for Escherichia coli LM705 harboring GyrA S83L/D87N double mutant/ParC S80I mutant/delta marR/delta acrR double mutant to MIC for wild type Escherichia coli LM179. Format: functional.
For data set [16], the system named is Escherichia coli. As to the kind of experiment: Selectivity ratio of MIC for Escherichia coli CH440 harboring GyrA S83L/D87N double mutant/ParC S80I E84V double mutant/aac(6')-lb-cr to MIC for wild type Escherichia coli LM179. The class given is functional.
The subject of data set [17] is Escherichia coli. As to the kind of experiment: Selectivity ratio of MIC for Escherichia coli CH460 harboring GyrA S83L/D87N double mutant/ParC S80I E84V double mutant/qepA to MIC for wild type Escherichia coli LM179. The class given is functional.
For data set [18], the system named is Escherichia coli. Put plainly: Selectivity ratio of MIC for Escherichia coli CH418 harboring GyrA S83L/D87N double mutant/ParC S80I E84G double mutant/qnrA to MIC for wild type Escherichia coli LM179. Format: functional.
The subject of data set [19] is Escherichia coli. As to the kind of experiment: Selectivity ratio of MIC for Escherichia coli CH448 harboring GyrA S83L mutant/qnrS to MIC for wild type Escherichia coli LM179. Format: functional.
The test system of the next data set is HepG2. Put plainly: Cytotoxicity against human HepG2 cells after 24 hrs by cell titre-glo assay. Format: cell-based. The settings on record: HepG2, 24 h.
Data set [20] can be described thus: n-octanol/phosphate buffer partition coefficient, log D of compound at pH 7.4 by shake-flask assay. Format: physicochemical.
The next data set deals with hERG (KCNH2) (Homo sapiens, UniProt Q12809). Put plainly: Inhibition of human ERG channel at 100 uM by automated patch clamp assay.
Sequence of hERG (KCNH2) (Q12809 whole entry): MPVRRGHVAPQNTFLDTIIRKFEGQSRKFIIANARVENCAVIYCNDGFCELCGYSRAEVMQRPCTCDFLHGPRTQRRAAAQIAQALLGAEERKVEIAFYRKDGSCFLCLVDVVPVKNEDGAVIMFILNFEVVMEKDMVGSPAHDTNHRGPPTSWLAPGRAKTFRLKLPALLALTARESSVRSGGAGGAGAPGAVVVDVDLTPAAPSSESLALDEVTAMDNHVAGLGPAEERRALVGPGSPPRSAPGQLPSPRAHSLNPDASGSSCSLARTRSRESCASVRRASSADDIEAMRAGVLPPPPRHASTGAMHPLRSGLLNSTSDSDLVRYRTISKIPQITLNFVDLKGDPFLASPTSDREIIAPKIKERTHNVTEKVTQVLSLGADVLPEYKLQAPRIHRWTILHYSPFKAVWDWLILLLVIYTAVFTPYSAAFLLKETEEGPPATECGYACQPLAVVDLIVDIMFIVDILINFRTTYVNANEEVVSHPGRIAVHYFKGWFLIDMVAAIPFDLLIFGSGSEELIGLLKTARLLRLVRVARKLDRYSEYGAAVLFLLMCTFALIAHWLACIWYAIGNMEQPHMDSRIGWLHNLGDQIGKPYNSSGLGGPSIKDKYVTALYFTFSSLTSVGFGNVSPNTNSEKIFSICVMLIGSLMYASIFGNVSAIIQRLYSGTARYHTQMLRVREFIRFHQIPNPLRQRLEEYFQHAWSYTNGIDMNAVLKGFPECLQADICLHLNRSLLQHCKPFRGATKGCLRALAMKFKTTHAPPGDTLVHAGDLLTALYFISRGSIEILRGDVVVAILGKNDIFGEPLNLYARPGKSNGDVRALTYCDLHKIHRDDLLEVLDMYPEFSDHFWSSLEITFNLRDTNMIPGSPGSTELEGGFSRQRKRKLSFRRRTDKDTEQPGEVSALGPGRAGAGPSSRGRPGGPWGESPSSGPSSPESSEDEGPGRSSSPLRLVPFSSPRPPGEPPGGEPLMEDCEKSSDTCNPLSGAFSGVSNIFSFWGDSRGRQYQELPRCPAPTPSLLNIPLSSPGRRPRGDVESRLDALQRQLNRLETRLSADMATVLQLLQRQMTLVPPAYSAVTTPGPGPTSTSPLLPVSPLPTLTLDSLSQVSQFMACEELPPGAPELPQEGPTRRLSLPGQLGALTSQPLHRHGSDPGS

Take `CCc1c(-c2ccc(N3CCC(CNC)C3)cc2)[nH]c(=O)c2c(=O)[nH]sc12` (configuration not stated): the MIC against Acinetobacter baumannii was over 128 µg/mL; against Klebsiella pneumoniae, 32 µg/mL (≈ 83.2 µM); with Pseudomonas aeruginosa, 2 µg/mL (≈ 5.2 µM); against Staphylococcus aureus, 2 µg/mL (≈ 5.2 µM); in the data set on Escherichia coli [1], 1 µg/mL (≈ 2.6 µM); with Escherichia coli [2] it was 0.008 µg/mL (≈ 0.0208 µM).
As to `CCc1c(-c2ccc(N3C[C@@H]4CCCN[C@@H]4C3)cc2)[nH]c(=O)c2c(=O)[nH]sc12`, the MIC in the data set with Acinetobacter baumannii is 8 µg/mL (≈ 20.2 µM); against Klebsiella pneumoniae it was 4 µg/mL (≈ 10.1 µM); in the data set with Pseudomonas aeruginosa, 1 µg/mL (≈ 2.52 µM); against Staphylococcus aureus it was 1 µg/mL (≈ 2.52 µM); against Escherichia coli [1] it was 0.5 µg/mL (≈ 1.26 µM); against Escherichia coli [2], 0.008 µg/mL (≈ 0.0202 µM).
For the compound `CCc1c(-c2cccc(N3CCC(CNC)C3)c2)[nH]c(=O)c2c(=O)[nH]sc12` (configuration not stated), the MIC against Acinetobacter baumannii was over 64 µg/mL; in the data set with Klebsiella pneumoniae it was over 64 µg/mL; against Pseudomonas aeruginosa it was over 64 µg/mL; against Staphylococcus aureus, 64 µg/mL (≈ 166 µM); against Escherichia coli [1], over 64 µg/mL; in the data set with Escherichia coli [2], 8 µg/mL (≈ 20.8 µM).
Take `CCc1c(-c2ccc(N3C[C@@H]4CCCN(C)[C@@H]4C3)cc2)[nH]c(=O)c2c(=O)[nH]sc12`: the MIC in the data set on Escherichia coli [3] came out at 4 µg/mL (≈ 9.74 µM); against Escherichia coli [4], 16 µg/mL (≈ 39 µM); against Acinetobacter baumannii it was 64 µg/mL (≈ 156 µM); against Klebsiella pneumoniae, 64 µg/mL (≈ 156 µM); against Pseudomonas aeruginosa, 32 µg/mL (≈ 77.9 µM); against Staphylococcus aureus, 4 µg/mL (≈ 9.74 µM). In addition, the MIC with Escherichia coli [1] is 4 µg/mL (≈ 9.74 µM); in the data set on Escherichia coli [2] it was 1 µg/mL (≈ 2.44 µM); against Escherichia coli [5], 16 µg/mL (≈ 39 µM); against Escherichia coli [6], over 64 µg/mL; with Escherichia coli [7], over 64 µg/mL; in the data set on Escherichia coli [8], over 64 µg/mL. The MIC against Escherichia coli [9] turned out to be 64 µg/mL (≈ 156 µM); against Escherichia coli [10] it was 64 µg/mL (≈ 156 µM); in the data set with Escherichia coli [11], 32 µg/mL (≈ 77.9 µM). Besides, the Selectivity ratio is given as 4 in the data set on Escherichia coli [12]; 4 with Escherichia coli [13]; over 16 in the data set with Escherichia coli [14]; over 16 with Escherichia coli [15]; over 16 in the data set on Escherichia coli [16]; 16 in the data set with Escherichia coli [17]. For the same compound, the values for the Selectivity ratio with Escherichia coli [18] and in the data set on Escherichia coli [19] were 16 and 8, respectively.
For the compound `CCc1c(-c2ccc(N3CCNCC3)cc2)[nH]c(=O)c2c(=O)[nH]sc12`, the MIC against Acinetobacter baumannii is over 64 µg/mL; with Klebsiella pneumoniae it was 64 µg/mL (≈ 180 µM); in the data set with Pseudomonas aeruginosa, 16 µg/mL (≈ 44.9 µM); in the data set on Staphylococcus aureus, 8 µg/mL (≈ 22.4 µM); in the data set on Escherichia coli [1], 4 µg/mL (≈ 11.2 µM); in the data set with Escherichia coli [2], 0.5 µg/mL (≈ 1.4 µM).
As for `CCc1c(-c2ccc(N3C[C@@H]4CCN(C)[C@@H]4C3)cc2)[nH]c(=O)c2c(=O)[nH]sc12`, the minimum inhibitory concentration (MIC) against Acinetobacter baumannii was 8 µg/mL (≈ 20.2 µM); in the data set with Klebsiella pneumoniae, 8 µg/mL (≈ 20.2 µM); in the data set on Pseudomonas aeruginosa it was 8 µg/mL (≈ 20.2 µM); in the data set on Staphylococcus aureus, 4 µg/mL (≈ 10.1 µM); against Escherichia coli [1], 0.5 µg/mL (≈ 1.26 µM); against Escherichia coli [2], 0.06 µg/mL (≈ 0.151 µM).
Consider `CCc1c(-c2ccc(N3CC[C@@H](N(C)C)C3)cc2)[nH]c(=O)c2c(=O)[nH]sc12`, for which the MIC against Acinetobacter baumannii came out at 4 µg/mL (≈ 10.4 µM); in the data set on Klebsiella pneumoniae, 8 µg/mL (≈ 20.8 µM); against Pseudomonas aeruginosa it was 1 µg/mL (≈ 2.6 µM); in the data set on Staphylococcus aureus, 2 µg/mL (≈ 5.2 µM); in the data set with Escherichia coli [1] it was 0.5 µg/mL (≈ 1.3 µM); in the data set on Escherichia coli [2], 0.03 µg/mL (≈ 0.078 µM).
Turning to `CCc1c(-c2ccc(N3CC[C@@H](O)C3)cc2)[nH]c(=O)c2c(=O)[nH]sc12`, the MIC is 16 µg/mL (≈ 44.8 µM) against Acinetobacter baumannii; 2 µg/mL (≈ 5.6 µM) in the data set on Klebsiella pneumoniae; 1 µg/mL (≈ 2.8 µM) against Pseudomonas aeruginosa; 0.015 µg/mL (≈ 0.042 µM) with Staphylococcus aureus; 0.12 µg/mL (≈ 0.336 µM) in the data set on Escherichia coli [1]; 0.008 µg/mL (≈ 0.0224 µM) against Escherichia coli [2].
In the case of `CCc1c(-c2ccc(N3CC[C@H](O)C3)cc2)[nH]c(=O)c2c(=O)[nH]sc12`, the MIC against Acinetobacter baumannii is 32 µg/mL (≈ 89.5 µM); against Klebsiella pneumoniae, 4 µg/mL (≈ 11.2 µM); in the data set on Pseudomonas aeruginosa, 0.5 µg/mL (≈ 1.4 µM); against Staphylococcus aureus, 0.12 µg/mL (≈ 0.336 µM); against Escherichia coli [1] it was 0.25 µg/mL (≈ 0.699 µM); against Escherichia coli [2], 0.03 µg/mL (≈ 0.0839 µM). Also, in the data set with HepG2, the IC50 was over 16 µg/mL. The compound further displayed a logD in [20] of 1.5. At hERG (KCNH2), this compound returned an inhibition at 100 µM of 22%.
Consider `O=C(O)c1cn(C2CC2)c2cc(N3CCNCC3)c(F)cc2c1=O` [CIPROFLOXACIN], for which the MIC was 0.25 µg/mL (≈ 0.754 µM) in the data set with Klebsiella pneumoniae; 1 µg/mL (≈ 3.02 µM) in the data set on Pseudomonas aeruginosa; 0.25 µg/mL (≈ 0.754 µM) against Staphylococcus aureus; 64 µg/mL (≈ 193 µM) against Escherichia coli [7]; over 64 µg/mL with Escherichia coli [8]; over 64 µg/mL with Escherichia coli [9]. Moreover, in the data set with Escherichia coli [10], the MIC is 64 µg/mL (≈ 193 µM). In addition, in the data set with HepG2, the IC50 was over 128 µg/mL.
